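Values below derive from 48-hour exposures of cells grown in 96-well plates, with endpoints linearly interpolated between the two concentrations bracketing the appropriate inhibition level. TGI: total growth inhibition.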
Columns and labels:
Assay in all cases: NCI anticancer screen, dose series, 48 h
HS 578T breast = tested on: HS 578T breast
EKVX NSCLC = tested on: EKVX NSCLC
LOX IMVI melanoma = tested on: LOX IMVI melanoma
CCRF-CEM leukemia = tested on: CCRF-CEM leukemia
RXF 393 renal = tested on: RXF 393 renal
BT-549 breast = tested on: BT-549 breast
MDA-MB-435 = tested on: MDA-MB-435
KM12 colon = tested on: KM12 colon

Row | SMILES | TGI (HS 578T breast) | TGI (EKVX NSCLC) | TGI (LOX IMVI melanoma) | TGI (CCRF-CEM leukemia) | TGI (RXF 393 renal) | TGI (BT-549 breast) | TGI (MDA-MB-435) | TGI (KM12 colon)
1 | CCOC(=O)C(NC(=O)CC)(Nc1ccc(S(=O)(=O)Nc2onc(C)c2C)cc1)C(F)(F)F (stereo not given) | > 100 µM | > 100 µM | > 100 µM | > 100 µM | > 100 µM | > 100 µM | > 100 µM | > 100 µM
2 | O=S(=O)(c1ccc(-c2nnc(-c3ccc(F)cc3)o2)cc1)c1ccc(-c2nnc(-c3ccc(F)cc3)o2)cc1 | – | > 100 µM | > 100 µM | > 100 µM | 77.7 µM | > 100 µM | > 100 µM | > 100 µM
3 | CCCCCCCCCC(=O)N[C@@H](c1ccco1)[C@@H](O)C(=O)O[C@H]1C[C@@]2(O)[C@@H](OC(=O)c3ccccc3)[C@@H]3[C@]4(OC(C)=O)CO[C@@H]4C[C@H](O)[C@@]3(C)C(=O)[C@H](OC(C)=O)C(=C1C)C2(C)C | 0.0857 µM | > 50 µM | 7.74 µM | – | 0.898 µM | 1.07 µM | 0.0345 µM | 8.44 µM
4 | OCC(CCc1ccccc1I)C1=CCC2(CC1)OCCO2 (stereo not given) | 45.4 µM | 58.4 µM | 29.1 µM | 35.7 µM | 34.9 µM | – | 30.7 µM | 31 µM
5 | Cc1nc2n(c1/C=C1/C(=O)Nc3ccccc31)CCS2 | > 100 µM | > 100 µM | > 100 µM | > 100 µM | 71.3 µM | > 100 µM | 36.1 µM | > 100 µM
6 | Cc1ccc(S(=O)(=O)NC(=O)NC(CCCCN=C(N)N)C(=O)O)cc1 (stereo not given) | > 100 µM | – | > 100 µM | > 100 µM | > 100 µM | > 100 µM | – | > 100 µM
7 | CN1N=C(c2ccncc2)OC1c1cccc(C(F)(F)F)c1 (stereo not given) | > 100 µM | > 100 µM | > 100 µM | > 100 µM | > 100 µM | – | > 100 µM | > 100 µM
8 | O=C(O)CC[P+](c1ccccc1)(c1ccccc1)c1ccccc1 | > 100 µM | > 100 µM | > 100 µM | > 100 µM | > 100 µM | 81.8 µM | > 100 µM | > 100 µM
9 | O=C1CC(C(CC(=O)c2ccccc2)c2ccccc2)C(=O)c2ccccc2N1 (stereo not given) | > 100 µM | > 100 µM | > 100 µM | > 100 µM | – | > 100 µM | > 100 µM | > 100 µM
10 | C=C[C@@]1(O)CCCC[C@@H]1CC(Sc1ccccc1)Sc1ccccc1 | 33.6 µM | 31.1 µM | 34.5 µM | > 100 µM | 30.5 µM | – | 33 µM | 37.9 µM
11 | CC(C)=CCOc1cc(NC(=S)c2ccsc2C)ccc1Cl | > 100 µM | > 100 µM | > 100 µM | > 100 µM | 80.6 µM | > 100 µM | > 100 µM | > 100 µM
12 | CCOC(=O)NNC(=O)NCc1ccccc1CNC(=O)NNC(=O)OCC | > 100 µM | > 100 µM | > 100 µM | > 100 µM | > 100 µM | > 100 µM | > 100 µM | > 100 µM
13 | Cn1c([C@H](C#N)C(=O)c2cc(O)ccc2[N+](=O)[O-])nc2ccccc21 | > 100 µM | > 100 µM | > 100 µM | > 100 µM | – | > 100 µM | > 100 µM | > 100 µM
14 | Nc1nccc(NCC2(CO)CCC2)n1 | > 100 µM | > 100 µM | > 100 µM | > 100 µM | > 100 µM | > 100 µM | > 100 µM | > 100 µM
15 | COC(=O)C1=C(O)C(C(=O)OC)[C@]2(O)[C@@H](C(=O)OC)[C@H]1C[C@@H](c1ccccc1)[C@@H]2C(=O)OC (stereo not given in full) | 76.8 µM | 53.6 µM | 39.3 µM | 49.3 µM | 19.9 µM | 33.5 µM | 30.6 µM | 25.8 µM
16 | COC(=O)c1c(C)cccc1C1CN=NC12Cc1ccc(C)c(C)c1C2=O (stereo not given) | > 100 µM | 82.5 µM | > 100 µM | > 100 µM | > 100 µM | – | > 100 µM | > 100 µM
17 | Cc1cccc2nc3c(=O)[nH]c(=O)nc-3n(C)c12 | > 100 µM | > 100 µM | > 100 µM | > 100 µM | > 100 µM | > 100 µM | 34.1 µM | > 100 µM
18 | NC(=O)c1cc(N(CCO)CCO)c([N+](=O)[O-])cc1[N+](=O)[O-] | > 100 µM | > 100 µM | > 100 µM | > 100 µM | > 100 µM | – | > 100 µM | > 100 µM
19 | Cc1ccnc2nc(N)ccc12 | > 100 µM | > 100 µM | – | > 100 µM | > 100 µM | > 100 µM | > 100 µM | > 100 µM

Reference: PubChem BioAssay (NCI)
